In patent US20200179392A1, “Idelalisib for Treating Proliferative Vitreoretinopathy and Abnormal Intraocular Neovascularization” (priority 2016, published 2020):

Tested on: PDGFRβ/PI3Kδ/Akt
Experiment: Western blot of vitreous-induced Akt activation restored by mutant PDGFRβ (βΔx) in PDGFRβ-silent RPEM cells
Format: cell-based, human
Details: PDGFRβ-silent RPEM cells expressing βΔx; NAC 10 mM, SU6656 1 μM
Method: 2B. Serum-deprived RPEM cells as defined were treated with RV or PDGF-B for 30 minutes and their lysates were analyzed with indicated antibodies. This is a representative of three independent experiments. βΔx: a truncated PDGFRβ without the PDGF-binding domain. NAC: N-acetyl-cysteine (10 mM), a scavenger of reactive oxygen species (ROS), SU: SU6656 (1 μM), a specific inhibitor of Src family kinases (SFKs).
To make the retrovirus, the pLXSHD-PDGFRβΔx construct was transfected into 293GPG cells with reagent (Lipofectamine 2000; Invitrogen). Virus containing medium was collected for 5 days and then was concentrated (25,000g, 90 minutes, 4° C.). RPEM cells deficient for PDGFRβ were infected by incubation with the concentrated retrovirus in DMEM supplemented with 10% FBS and 8 μg/mL polybrene (hexadimethrine bromide; Sigma) for 24 hours. Successfully infected cells were selected in histidine-free DMEM supplemented with 2 mM L-histidinol dihydrochoride (Sigma, St. Louis, Mo.). Resultant cell lines were termed RPEMPAx; the level of the truncated PDGFRPAx was determined by Western blot analysis with an antiPDGFRβ antibody that recognizes the receptor's intracellular domain.
Cells grown to 90% confluence in wells of 24-well plates were serum starved for 24 hours, and then treated with appropriated agents. […] Signal intensity was determined by densitometry using NIH imageJ software^24, 44, 50.

| Compound | effect on restoration of vitreous-induced activation of Akt by mutant PDGFRβ |
| --- | --- |
| CC(=O)N[C@@H](CS)C(=O)O [N-acetyl-cysteine] | prevented |
| CN(C)S(=O)(=O)c1ccc2c(c1)/C(=C/c1cc3c([nH]1)CCCC3)C(=O)N2 [SU6656] | prevented |
